In paper PMC12621202, “RTx-303, an Orally Bioavailable Polθ Polymerase Inhibitor That Potentiates PARP Inhibitors in BRCA Mutant Tumors” (Journal of Medicinal Chemistry, 2025):

System: HCT116 BRCA2^-/-
Test: FITC active Caspase-3 apoptosis assay
Assay type: cell-based, human

Q: For `[2H]C([2H])([2H])N(C(=O)Oc1c(N2CCN(CC(O)CN(C)C)C2=O)cc(C(F)(F)F)cc1C(F)(F)F)c1ccc(F)cc1` (stereo not shown) [RTx-284, 2-{3-[3-(Dimethylamino)-2-hydroxypropyl]-2-oxoimidazolidin-1-yl}-4,6-bis(trifluoromethyl)phenyl N-(4-fluorophenyl)-N-(methyl-d3)-carbamate], which “% Cells, FITC Caspase-3 Negative” value (5 μM) is on record?
A: 91%

Q: What about the “% Cells, FITC Caspase-3 Positive” value (5 μM) of the same molecule?
A: 10%

Q: What about the “% Cells, FITC Caspase-3 Negative” value (10 μM) of the same molecule?
A: 88%

Q: And the “% Cells, FITC Caspase-3 Positive” value (10 μM)?
A: 12%
